Consider 2 compounds from patent publication US20060178307A1, “Modulation of NMDA receptor currents via orexin receptor and/or CRF receptor” (priority 2005, published 2006).

The subject of assay [1] is AMPAR/NMDAR ratio of EPSCs in VTA dopamine cells. Description: AMPAR/NMDAR ratio in VTA slices 24 hr after 5-day in vivo treatment. Details: species or system rat. The note with it: 5 days. How it is done:
The next study investigated whether orexin signaling in the VTA is required for the long-term plasticity associated with the development of behavioral sensitization. Long-term synaptic plasticity at excitatory synapses on VTA neurons was examined 24 hr after a 5-day treatment of cocaine (15 mg/kg) or saline (0.9%), a time course shown to induce long-lasting locomotor sensitization to cocaine (Thomas et al., 2001), with or without the OXR1 antagonist, SB 334867 (10 mg/kg, FIG. 5). To assay for synaptic plasticity, the relative contributions of AMPARs and NMDARs to EPSCs recorded in VTA dopamine cells were compared. Consistent with the potentiation observed following acute and 7-day cocaine treatments (Borgland et al., 2004), 5-day treatment with cocaine potentiated the AMPAR/NMDAR ratio compared to saline controls (FIG. 5A, saline: 0.4±0.07, n=4; cocaine: 0.8±0.1, n=4, p<0.05). This potentiation of synaptic plasticity was blocked by 5-day treatment with the OXR1 antagonist, SB 334867, administered 15 min prior to cocaine or saline (FIG. 5A, saline+SB334867: 0.4±0.02, n=5 vs. cocaine+SB334867: 0.5±0.08, n=11, p>0.05). Since OXR1 antagonists block cocaine-mediated potentiation of the AMPAR/NMDAR ratio, orexin A may either facilitate cocaine-mediated synaptic plasticity or enhance synaptic transmission itself. A 5-min orexin A application was performed to determine whether this caused changes in AMPAR/NMDAR ratio either 15 min or 3-4 hours after application (FIG. 5B).
(§1) To calculate the AMPAR/NMDAR ratio, an average of 12 EPSCs at +40 mV was computed before and after application of the NMDAR blocker, AP5 (50 μM) for 5 min. NMDAR responses were calculated by subtracting the average response in the presence of AP5 (AMPAR only) from that seen in its absence; the peak of the AMPAR EPSC was divided by the peak of the NMDAR EPSC to yield an AMPAR/NMDAR ratio.
Male Sprague-Dawley Rats (P21-P30; Charles River, N.C.) were singly housed with food and water available ad libitum. A 12 hr light/dark cycle was used, with the lights on at 7:00 A.M. All cocaine injections and behavioral testing were performed during the light cycle for consecutive days. The four treatment groups consisted of rats given 5 daily i.p. injections of SB 334867 (10 mg/kg) 15 min preceding i.p. injection of cocaine (15 mg/kg) or saline (0.9% NaCl), or i.p. injections of vehicle (10% DMSO and 25% β-hydroxy cyclodextrin in saline) 15 min preceding i.p. injection of cocaine or saline. […] Locomotor activity was measured in 17″×17″ chambers lined with three 16-beam I/R arrays. […] Distance traveled was measured using Open Field Activity Software (Med Associates, Inc) and analyzed for estimates of locomotion based on the movement of a given distance and resting delay (movement in a given period of time).

Assay [2] relates to reinforcement for food. Briefly: Operant food self-administration, progressive ratio schedule. In kind it is in vivo, rats. How it is done:
After 3-4 weeks of self-administration of cocaine (0.5 mg/infusion) ramping from fixed ratio of 1 lever press (FR1) to receive a reward to a stable fixed ratio of 5 lever presses to receive a reward (FR5) schedule, animals lever pressed for cocaine on a progressive ratio schedule for 4 days. On the second and third day, each animal received a vehicle injection (i.p.), and on the fourth day the animals received an injection (i.p.) of the OXR1 antagonist: SB334867, 10 mg/kg. As a control, orexin modulation of food self-administration was examined under the same paradigm. For food self-administration, animals were trained to an FR5 schedule for food pellets.
This effect of the OXR1 antagonist was not observed with respect to reinforcement for food. Rats were trained to lever press for food on an […] schedule, and subsequently a progressive ratio schedule. Rats were given vehicle on the 2nd and 3rd day of progressive ratio testing and then SB 334867 (10 mg/kg, i.p.) on the 4th day.

Assay [3] concerns AMPAR/NMDAR ratio of EPSCs in VTA dopamine cells. Briefly: AMPAR/NMDAR ratio after 5-min bath application to VTA slices. In kind it is cell-based, rat. The note with it: orexin A 100 nM 5 min, n=8. On the procedure: The next study investigated whether orexin signaling in the VTA is required for the long-term plasticity associated with the development of behavioral sensitization. Long-term synaptic plasticity at excitatory synapses on VTA neurons was examined 24 hr after a 5-day treatment of cocaine (15 mg/kg) or saline (0.9%), a time course shown to induce long-lasting locomotor sensitization to cocaine (Thomas et al., 2001), with or without the OXR1 antagonist, SB 334867 (10 mg/kg, FIG. 5). To assay for synaptic plasticity, the relative contributions of AMPARs and NMDARs to EPSCs recorded in VTA dopamine cells were compared. Consistent with the potentiation observed following acute and 7-day cocaine treatments (Borgland et al., 2004), 5-day treatment with cocaine potentiated the AMPAR/NMDAR ratio compared to saline controls (FIG. 5A, saline: 0.4±0.07, n=4; cocaine: 0.8±0.1, n=4, p<0.05). […]
as §1

In assay [4] the test system is AMPAR-induced current. Briefly: Holding current change on bath-applied AMPA with cyclothiazide. In kind it is cell-based, rat.
The subject of assay [5] is NMDAR mEPSCs. Briefly: NMDAR mEPSCs in Mg2+-free buffer at −40 mV. In kind it is cell-based, rat. On the procedure: To examine changes in number or function of NMDARs after orexin treatment NMDAR mEPSCs were recorded in buffer without Mg^2+, and in the presence CNQX (10 μM), glycine (20 μM) and lidocaine (500 μM). Orexin A (100 nM) caused a significant increase in amplitude in NMDAR mEPSCs 15 min after application (17.1±0.7 pA, n=8, FIG. 7B,D,F) compared to untreated neurons (14.2±0.9 pA, n=8, FIG. 7A,D,F) or at 3-4 hours after orexin A application (13.9±0.5 pA, n=7, FIG. 7C,D,F).
AMPAR mEPSCs were recorded in cells voltage-clamped at −70 mV in lidocaine (500 μM), APV (50 μM) and sucrose (100 mM). NMDAR mEPSCs were recorded at −40 mV in Mg2+-free external solution with lidocaine (500 μM), glycine (20 μM), and CNQX (10 μM). mEPSCs were collected using Clampex (Axon Instruments) and analyzed using Mini Analysis Program (Synaptosoft). Detection criteria were set at >10 pA, <1 ms rise-time, and <3 ms decay-time for AMPAR mEPSCs and >10 pA, <1 ms rise-time, and <10 ms decay-time for NMDAR mEPSCs. mEPSC traces were recorded while sampling every 10 μs, the images were filtered at 5 kHz. Averaged mEPSCs were constructed using Mini Analysis Program (Synaptosoft).

[6] abbreviates: 10 mg/kg i.p. on 4th day of progressive ratio, n=10.

“Also recorded” adds a separate entry of the source. Where no end group is shown, it is not given here.

Consider `Cc1nc2ccc(NC(=O)Nc3ccnc4cccnc34)cc2o1.Cl` [SB 334867, 1-(2-methylbenzoxazol-6-yl)-3-[1,5]naphthyridin-4-yl urea hydrochloride], for which, in assay [1] (10 mg/kg i.p. 15 min prior to cocaine), the “effect on cocaine-induced potentiation of AMPAR/NMDAR ratio” value is “blocked”. For the same compound, the AMPAR/NMDAR ratio is recorded as 0.5±0.08 in assay [1] (cocaine 15 mg/kg + SB334867 10 mg/kg 15 min prior, n=11) and 0.4±0.02 in assay [1] (saline + SB334867 10 mg/kg 15 min prior, n=5). Also, in assay [2] (setting [6]), the “breakpoint (food)” value is “unaltered”. Further, the “total number of food pellets received” value in assay [2] (setting [6]) was “not altered”. Further, in assay [2] (10 mg/kg i.p., hydrochloride), the reinforcement for food entry is “not observed; also recorded: did not alter”.

On to “orexin A: neuropeptide synthesized in neurons of the LH; orexin receptor agonist selective for the OXR1 receptor (QPLPDCCRQKTCSCRLYELLHGAGNHAAGILTL; ends and bridges not checked; cysteine pairing not given here; UniProt O43612 34-66, looked up)”, for which the figures for the AMPAR/NMDAR ratio in assay [3] (15 min after treatment) and in assay [3] (after 3-4 hours) were 0.29±0.04 and 0.75±0.1, respectively. The AMPAR-induced current in assay [4] (AMPA 2 μM 30 sec + cyclothiazide 100 μM, 15 min after orexin A 100 nM, n=5) is listed as −243±79 pA; in assay [4] (AMPA 2 μM + cyclothiazide, 3-4 hours after orexin A 100 nM, n=6) it was −367±63 pA. Also, the “frequency of NMDAR mEPSCs” value in assay [5] (3-4 hours after orexin A) was determined as 2.5±0.4; in assay [5] (15 min after orexin A), 2.1±0.3. Moreover, the “NMDAR mEPSC amplitude” value in assay [5] (3-4 hours after orexin A, n=7) turned out to be 13.9±0.5 pA; in assay [5] (15 min after orexin A 100 nM, n=8), 17.1±0.7 pA.
